In patent US9902728B2, “Pyrrolo and pyrazolopyrimidines as ubiquitin-specific protease 7 inhibitors” (Forma Therapeutics, Inc., priority 2014, dated 2018) one finds IC50 data, which are given here for 42 compounds.

Bounds are passed on as bounds.

T1 sequence (Q93009 208-1102): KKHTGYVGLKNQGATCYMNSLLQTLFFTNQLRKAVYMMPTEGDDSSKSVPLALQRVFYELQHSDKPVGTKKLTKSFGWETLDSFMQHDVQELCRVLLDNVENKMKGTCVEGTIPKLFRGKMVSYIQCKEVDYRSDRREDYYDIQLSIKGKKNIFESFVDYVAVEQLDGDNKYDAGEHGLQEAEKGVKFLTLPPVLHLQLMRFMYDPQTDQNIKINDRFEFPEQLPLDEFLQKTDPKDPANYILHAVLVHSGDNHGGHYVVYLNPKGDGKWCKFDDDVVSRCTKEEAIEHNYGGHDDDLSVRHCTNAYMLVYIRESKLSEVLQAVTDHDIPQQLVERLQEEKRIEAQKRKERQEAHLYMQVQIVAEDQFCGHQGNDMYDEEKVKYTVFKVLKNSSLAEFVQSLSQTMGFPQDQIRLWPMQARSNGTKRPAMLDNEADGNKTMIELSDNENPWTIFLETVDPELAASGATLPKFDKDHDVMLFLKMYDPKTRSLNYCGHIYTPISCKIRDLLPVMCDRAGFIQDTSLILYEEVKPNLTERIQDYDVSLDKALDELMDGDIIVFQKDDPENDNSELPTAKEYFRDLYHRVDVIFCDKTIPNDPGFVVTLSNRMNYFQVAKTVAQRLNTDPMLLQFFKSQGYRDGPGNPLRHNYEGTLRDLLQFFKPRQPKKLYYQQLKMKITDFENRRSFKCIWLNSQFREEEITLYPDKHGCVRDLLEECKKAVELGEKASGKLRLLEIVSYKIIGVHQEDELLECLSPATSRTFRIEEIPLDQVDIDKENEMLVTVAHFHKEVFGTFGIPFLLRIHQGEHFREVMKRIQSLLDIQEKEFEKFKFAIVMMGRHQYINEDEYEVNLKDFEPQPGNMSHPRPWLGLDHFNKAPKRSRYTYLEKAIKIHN

The first experiment has as its target T1, USP7 (Homo sapiens, UniProt Q93009).
T1 construct: USP7, construct USP7 (208-1102) 6*His, Viva Biotech; 6xHis (C); purchased Viva Biotech
As to the kind of experiment: USP7 Assay A (Ubitquin-Rhodamine 110 Assay). It is filed as biochemical. The note with it: USP7 activity in USP7 assay A and B (table does not say which assay per compound); read-out: USP7_IC50. The method, then:
Each assay was performed in a final volume of 15 μL in assay buffer containing 20 mM Tris-HCl (pH 8.0, (1M Tris-HCl, pH 8.0 solution; Corning 46-031-CM)), 1 mM GSH (L-Glutathione reduced; Sigma #G4251), 0.03% BGG ([…], Sigma, #G7516-25G), and 0.01% Triton X-100 (Sigma, #T9284-10L). […] 5 μL of 2× enzyme was added to assay plates (pre-stamped with compound) preincubated with USP7 for 30 minutes and then 5 μL of 2×Ub-Rh110 was added to assay plates. […] Fluorescence was read on the Envision (Excitation at 485 nm and Emission at 535 nm; Perkin Elmer) or on the PheraSTAR (Excitation at 485 nm and Emission at 535 nm; BMG Labtech).
Data from USP7 Assays A and B were reported as percent inhibition (inh) compared with control wells based on the following equation: % inh=1−((FLU−AveLow)/(AveHigh−AveLow)) where FLU=measured Fluorescence (See Tables 6-10). AveLow=average Fluorescence of no enzyme control (n=16). AveHigh=average Fluorescence of DMSO control (n=16). […] Data is fitted using the Levenburg Marquardt algorithm.
Regarding `C[C@@H](CC(=O)N1CCC(O)(Cn2cnc3c(cnn3-c3ccc(N4CC[C@](C)(O)C4)cc3)c2=O)CC1)n1cccn1` [Compound I-837], the IC50 is less than 0.2 µM. Take `O=C(C[C@H](C(F)F)n1ccc(F)n1)N1CCC(O)(Cn2cnc3c(cnn3-c3cccc(N4CC5CC5C4)c3)c2=O)CC1` (stereo partly drawn) [Compound I-791]: the IC50 was 0.2 to 1 µM.

For the compound `O=C(C1CCC(Oc2cccnc2F)CC1)N1CCC(O)(Cn2cnc3c(cnn3-c3ccccc3)c2=O)CC1` (stereo not drawn) [Compound I-1017], the IC50 fell in the range of 0.2 to 1 µM. As to `O=C(C1CCC(Oc2ccccn2)CC1)N1CCC(O)(Cn2cnc3c(cnn3-c3ccc(F)cc3)c2=O)CC1` (stereo not drawn) [Compound I-545], the IC50 lay within 0.2 to 1 µM. The same measure, in the same setting: in the case of `O=C(c1ccc(F)cc1)N1CCC(O)(Cn2cnc3c(cnn3-c3ccc(N4CCCn5ccnc54)cc3)c2=O)CC1` [Compound I-1170] it was 0.2 to 1 µM. On the same count and under the same terms, the same measure for `O=C(C1CCC(OC2CCOCC2)CC1)N1CCC(O)(Cn2cnc3c(cnn3-c3ccc(F)cc3)c2=O)CC1` (stereo not drawn) [Compound I-925]: 1 to 10 µM; for `O=C(c1ccnn1Cc1ccccc1)N1CCC(O)(Cn2cnc3c(cnn3-c3ccc(F)cc3)c2=O)CC1` [Compound I-541]: 0.2 to 1 µM; for `O=C(c1ccc(F)cc1)N1CCC(O)(Cn2cnc3c(cnn3-c3ccc(N4CCCc5cnccc54)cc3)c2=O)CC1` [Compound I-1729]: 1 to 10 µM. Still for that read-out and setting: in the case of `CC1CN(c2cccc(-n3ncc4c(=O)n(CC5(O)CCN(C(=O)C6(C)CC6)CC5)cnc43)c2)CC(C)N1C` (stereo not drawn) [Compound I-1645] it was less than 0.2 µM. As for `Cn1cc(-c2ccc(-n3ncc4c(=O)n(CC5(O)CCN(C(=O)c6cnc(C7CC7)o6)CC5)cnc43)cc2)cn1` [Compound I-776], the IC50 is less than 0.2 µM. Still for that read-out and setting: in the case of `O=C(c1ccc(F)cc1)N1CCC(O)(Cn2cnc3c(cnn3-c3ccc(-c4cnn(C5CCS(=O)(=O)CC5)c4)cc3)c2=O)CC1` [Compound I-1744] it was 0.2 to 1 µM; in that of `Cc1onc(Cc2ccccc2)c1C(=O)N1CCC(O)(Cn2cnc3c(cnn3-c3ccc(F)cc3)c2=O)CC1` [Compound I-1164], less than 0.2 µM; in that of `Cn1nccc1NC1CCC(C(=O)N2CCC(O)(Cn3cnc4c(cnn4-c4ccc(F)cc4)c3=O)CC2)CC1` (stereo not drawn) [Compound I-763], 1 to 10 µM. As to `CN1CCC2(CC1)CCN(c1ccc(-n3ncc4c(=O)n(CC5(O)CCN(C(=O)C6CC6)CC5)cnc43)cc1)CC2` [Compound I-1622], the IC50 was less than 0.2 µM. The same measure, in the same setting: the same measure for `O=C(c1cccn1Cc1ccccc1F)N1CCC(O)(Cn2cnc3c(cnn3-c3ccc(F)cc3)c2=O)CC1` [Compound I-561]: 0.2 to 1 µM; for `Cn1ccc(NC2CCC(C(=O)N3CCC(O)(Cn4cnc5c(cnn5-c5ccc(F)cc5)c4=O)CC3)CC2)n1` (stereo not drawn) [Compound I-766]: 0.2 to 1 µM; for `O=C(C1CC1)N1CCC(O)(Cn2cnc3c(cnn3-c3ccc(-c4cncc(C(F)(F)F)c4)cc3)c2=O)CC1` [Compound I-1737]: 1 to 10 µM. For the compound `O=C(C1CCC(Oc2ccccn2)CC1)N1CCC(O)(Cn2cnc3c(cnn3-c3ccc(F)cc3)c2=O)CC1` (stereo not drawn) [Compound I-544], the IC50 is 1 to 10 µM. On the same count and under the same terms, in the case of `Cc1nccn1-c1ccc(-n2ncc3c(=O)n(CC4(O)CCN(C(=O)c5ccc(F)cc5)CC4)cnc32)cc1` [Compound I-988] it was 1 to 10 µM; in that of `O=C(C[C@@H](C(F)F)n1ccc(F)n1)N1CCC(O)(Cn2cnc3c(cnn3-c3cccc(N4CCOCC4)c3)c2=O)CC1` [Compound I-789], less than 0.2 µM.

Staying with this experiment, now noted: USP7 assay A and B (table does not say which assay per compound); read-out: USP7_IC50.
For the compound `CN(C)C(=O)N1CCC(O)(Cn2cnc3c(cnn3-c3ccc(N4CCN5CCCCC5C4)cc3)c2=O)CC1` (stereo not drawn) [Compound I-1525], the IC50 was in the range of 1 to 10 µM.

Regarding `O=C(C1CC1)N1CCC(O)(Cn2cnc3c(cnn3-c3cccnc3)c2=O)CC1` [Compound I-30], the IC50 lay within 1 to 10 µM. `O=C(c1ccc(=O)[nH]c1)N1CCC(O)(Cn2cnc3c(cnn3-c3ccccc3)c2=O)CC1` [Compound I-160]: the IC50 fell in the range of 0.2 to 1 µM. In the case of `CN1CCCC(CNc2ccc(-n3ncc4c(=O)n(CC5(O)CCN(C(=O)C6CC6)CC5)cnc43)cc2)C1` (stereo not drawn) [Compound I-1151], the IC50 was in the range of 0.2 to 1 µM. Same read-out and setting: the same measure for `CN1CCCCC1CCc1ccc(-n2ncc3c(=O)n(CC4(O)CCN(C(=O)c5ccc(F)cc5)CC4)cnc32)cc1` (stereo not drawn) [Compound I-1007, 5-((1-(4-fluorobenzoyl)-4-hydroxypiperidin-4-yl)methyl)-1-(4-(2-(1-methylpiperidin-2-yl)ethyl)phenyl)-1H-pyrazolo[3,4-d]pyrimidin-4(5H)-one]: 1 to 10 µM; for `O=C(c1ccc(F)c(F)c1)N1CCC(O)(Cn2cnc3c(cnn3-c3ccc(F)cc3)c2=O)CC1` [Compound I-309]: 1 to 10 µM. `O=C(c1cnc(N2CCCCC2)o1)N1CCC(O)(Cn2cnc3c(cnn3-c3ccc(F)cc3)c2=O)CC1` [Compound I-536]: the IC50 lay in the range of 1 to 10 µM. Still for that read-out and setting: the same measure for `Cc1ccc(C(=O)N2CCC(O)(Cn3cnc4c(cnn4-c4ccccc4)c3=O)CC2)cc1Cl` [Compound I-211]: 0.2 to 1 µM; for `O=C(c1ccc(-n2cccn2)cc1)N1CCC(O)(Cn2cnc3c(cnn3-c3ccc(F)cc3)c2=O)CC1` [Compound I-535]: 0.2 to 1 µM. For the compound `O=C(C1CCCC1)N1CCC(O)(Cn2cnc3c(cnn3-c3ccccc3)c2=O)CC1` [Compound I-195], the IC50 was 0.2 to 1 µM.

On to `O=C(C1CC1)N1CCC(O)(Cn2cnc3c(cnn3-c3ccc(-c4ccccc4)cc3)c2=O)CC1` [Compound I-276], for which the IC50 lay within 1 to 10 µM.

Turning to `O=C(C1CC1)N1CCC(O)(Cn2cnc3c(cnn3-c3cccc(-c4cccc5[nH]ccc45)c3)c2=O)CC1` [Compound I-406], the IC50 was 1 to 10 µM. Turning to `COc1ccc(-n2ncc3c(=O)n(CC4(O)CCN(C(=O)c5ccc(F)cc5)CC4)cnc32)cc1` [Compound I-620], the IC50 lay within 0.2 to 1 µM. For the compound `CN(C)c1ccc(-n2ncc3c(=O)n(CC4(O)CCN(C(=O)c5ccc(F)cc5)CC4)cnc32)cc1` [Compound I-707], the IC50 was in the range of 0.2 to 1 µM.

Consider `CNC(=O)c1ccc(C(=O)N2CCC(O)(Cn3cnc4c(cnn4-c4ccccc4)c3=O)CC2)cc1` [Compound I-184], for which the IC50 lay in the range of 0.2 to 1 µM. Take `O=C(C1CC1)N1CCC(O)(Cn2cnc3c(cnn3-c3cccc(NCc4cccnc4)c3)c2=O)CC1` [Compound I-1158]: the IC50 is 1 to 10 µM. Still for that read-out and setting: the same measure for `C=CS(=O)(=O)Nc1ccccc1-c1ccc(C(=O)N2CCC(O)(Cn3cnc4c(cnn4C)c3=O)CC2)cc1` [Compound I-45, N-(4′-(4-Hydroxy-4-((1-methyl-4-oxo-1,4-dihydro-5H-pyrazolo[3,4-d]pyrimidin-5-yl)methyl)piperidine-1-carbonyl)-[1,1′-biphenyl]-2-yl)ethenesulfonamide]: 0.2 to 1 µM; for `O=C(c1ccc(Cl)cc1Cl)N1CCC(O)(Cn2cnc3c(cnn3-c3ccccc3)c2=O)CC1` [Compound I-224]: 0.2 to 1 µM. Same read-out and setting: in the case of `CN(C)CCOc1cc(-n2ncc3c(=O)n(CC4(O)CCN(C(=O)C5CC5)CC4)cnc32)ccc1-c1ccccc1` [Compound I-856] it was 0.2 to 1 µM; in that of `O=C(C1CC1)N1CCC(O)(Cn2cnc3c(cnn3-c3cccc(NCc4ccccc4)c3)c2=O)CC1` [Compound I-1155], 0.2 to 1 µM.

`O=C(c1ccccc1)N1CCC(O)(Cn2cnc3c(cnn3-c3cccc(O)c3)c2=O)CC1` [Compound I-19]: the IC50 lay in the range of 1 to 10 µM.

As for `COC1(C)CCN(c2cc(-n3ncc4c(=O)n(CC5(O)CCN(C(=O)C6CC6)CC5)cnc43)ccc2F)C1` (single isomer, unassigned) [Compound I-971], the IC50 lay within 0.2 to 1 µM.
